Values of other authors in patent US6271232A, “Collagenase-1 and stromelysin-1 inhibitors, pharmaceutical compositions comprising same and methods of their use” (Affymax Technologies, N.V., priority 1999, dated 2001).

Molecular target: rabbit bone proteoglycanase
Conditions: Delaisse et al. (1985)

SMILES: CNC(=O)[C@H](Cc1ccc(OC)cc1)NC(=O)[C@H](CC(C)C)NC(CCNC(=O)OCc1ccccc1)C(=O)O (stereo partly drawn) [N-[3-(benzyloxy-carbonyl)amino-1-carboxy-n-propyl]-L-leucyl-O-methyl-L-tyrosine, N-methylamide]
- IC50: 0.5 µM
